Assay results as given in patent US8129427B2, “2-phenylethylamino derivatives as calcium and/or sodium channel modulators” (Newron Pharmaceuticals S.p.A., priority 2005, dated 2012).
Counter-ions that a name gives are not always drawn. Like-named read-outs stand apart in the source and are kept apart here.

Experiments:
N-type calcium channels = N-type calcium channels (Homo sapiens, UniProt Q00975); experiment: N-type calcium channel influx assay (fluorescence); type: cell-based
L-type calcium channels = type: cell-based, mouse; settings: AtT20/D16v-F2 cells, ω-conotoxin 1 μM, 100 mM KCl depolarization
MAO-B = biological target: T1, MAO-B (Rattus norvegicus, UniProt P19643); experiment: In vitro MAO-B enzyme activity radioenzymatic assay; type: biochemical; settings: 100 μM compound, rat brain crude mitochondrial fraction, 14C-PEA substrate
T1 construct: from tissue; host or cells: rat brain crude mitochondrial fraction
T1 sequence (P19643 1-520): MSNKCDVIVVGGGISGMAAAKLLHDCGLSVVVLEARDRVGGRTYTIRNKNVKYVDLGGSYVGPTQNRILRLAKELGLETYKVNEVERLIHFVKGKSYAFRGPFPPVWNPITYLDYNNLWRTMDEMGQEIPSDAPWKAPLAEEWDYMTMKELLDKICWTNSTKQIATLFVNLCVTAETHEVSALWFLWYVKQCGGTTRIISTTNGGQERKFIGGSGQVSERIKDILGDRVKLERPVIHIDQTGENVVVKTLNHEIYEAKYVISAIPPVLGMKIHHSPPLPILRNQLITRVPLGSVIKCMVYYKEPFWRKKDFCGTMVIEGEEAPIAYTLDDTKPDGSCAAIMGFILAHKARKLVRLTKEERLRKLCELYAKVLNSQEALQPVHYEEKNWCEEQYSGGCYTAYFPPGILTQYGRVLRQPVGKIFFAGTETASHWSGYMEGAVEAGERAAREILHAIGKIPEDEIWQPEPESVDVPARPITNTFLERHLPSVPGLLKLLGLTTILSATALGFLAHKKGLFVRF
Method: Male Wistar rats (Harlan, Italy—175-200 g) were sacrificed under light anaesthesia and brains were rapidly removed and homogenized in 8 volumes of ice-cold 0.32 M sucrose buffer containing 0.1 M EDTA, pH 7.4. The crude homogenate was centrifuged at 2220 rpm for 10 minutes and the supernatant recovered. The pellet was homogenized and centrifuged again. The two supernatants were pooled and centrifuged at 9250 rpm for 10 minutes at +4° C. The pellet was resuspended in fresh buffer and centrifuged at 11250 rpm for 10 minutes at +4° C. The resulting pellet was stored at −80° C.
The enzyme activities were assessed with a radioenzymatic assay using the substrates ^14C-serotonin (5-HT) and ^14C-phenylethylamine (PEA) for MAO-A and MAO-B, respectively.
The mitochondrial pellet (500 μg protein) was resuspended in 0.1 M phosphate buffer (pH 7.4). 500 μl of the suspension were added to a 50 μl solution of the test compound or buffer, and incubated for 30 min at 37° C. (preincubation) then the substrate (50 μl) was added. The incubation was carried out for 30 minutes at 37° C. (^14C-5-HT, 5 μM) or for 10 minutes at 37° C. (^14C-PEA, 0.5 μM).
The reaction was stopped by adding 0.2 ml of 37% HCl or perchloric acid. After centrifugation, the deaminated metabolites were extracted with 3 ml of diethyl ether (5-HT) or toluene (PEA) and the radioactive organic phase was measured by liquid scintillation spectrometry at 90% efficiency. The amount of neutral and/or acidic metabolites formed as a result of MAO activity was obtained by measuring the radioactivity of the eluate.
The activity of MAO in the sample, corresponding to a percentage of radioactivity compared with the control activity in the absence of the inhibitor, was expressed as nmoles of substrate transformed/mg protein/min.

[1] = differentiated IMR32 cells, nifedipine 1 μM, 100 mM KCl depolarization, read-out: IC50

Sequence of N-type calcium channels (Q00975 whole entry): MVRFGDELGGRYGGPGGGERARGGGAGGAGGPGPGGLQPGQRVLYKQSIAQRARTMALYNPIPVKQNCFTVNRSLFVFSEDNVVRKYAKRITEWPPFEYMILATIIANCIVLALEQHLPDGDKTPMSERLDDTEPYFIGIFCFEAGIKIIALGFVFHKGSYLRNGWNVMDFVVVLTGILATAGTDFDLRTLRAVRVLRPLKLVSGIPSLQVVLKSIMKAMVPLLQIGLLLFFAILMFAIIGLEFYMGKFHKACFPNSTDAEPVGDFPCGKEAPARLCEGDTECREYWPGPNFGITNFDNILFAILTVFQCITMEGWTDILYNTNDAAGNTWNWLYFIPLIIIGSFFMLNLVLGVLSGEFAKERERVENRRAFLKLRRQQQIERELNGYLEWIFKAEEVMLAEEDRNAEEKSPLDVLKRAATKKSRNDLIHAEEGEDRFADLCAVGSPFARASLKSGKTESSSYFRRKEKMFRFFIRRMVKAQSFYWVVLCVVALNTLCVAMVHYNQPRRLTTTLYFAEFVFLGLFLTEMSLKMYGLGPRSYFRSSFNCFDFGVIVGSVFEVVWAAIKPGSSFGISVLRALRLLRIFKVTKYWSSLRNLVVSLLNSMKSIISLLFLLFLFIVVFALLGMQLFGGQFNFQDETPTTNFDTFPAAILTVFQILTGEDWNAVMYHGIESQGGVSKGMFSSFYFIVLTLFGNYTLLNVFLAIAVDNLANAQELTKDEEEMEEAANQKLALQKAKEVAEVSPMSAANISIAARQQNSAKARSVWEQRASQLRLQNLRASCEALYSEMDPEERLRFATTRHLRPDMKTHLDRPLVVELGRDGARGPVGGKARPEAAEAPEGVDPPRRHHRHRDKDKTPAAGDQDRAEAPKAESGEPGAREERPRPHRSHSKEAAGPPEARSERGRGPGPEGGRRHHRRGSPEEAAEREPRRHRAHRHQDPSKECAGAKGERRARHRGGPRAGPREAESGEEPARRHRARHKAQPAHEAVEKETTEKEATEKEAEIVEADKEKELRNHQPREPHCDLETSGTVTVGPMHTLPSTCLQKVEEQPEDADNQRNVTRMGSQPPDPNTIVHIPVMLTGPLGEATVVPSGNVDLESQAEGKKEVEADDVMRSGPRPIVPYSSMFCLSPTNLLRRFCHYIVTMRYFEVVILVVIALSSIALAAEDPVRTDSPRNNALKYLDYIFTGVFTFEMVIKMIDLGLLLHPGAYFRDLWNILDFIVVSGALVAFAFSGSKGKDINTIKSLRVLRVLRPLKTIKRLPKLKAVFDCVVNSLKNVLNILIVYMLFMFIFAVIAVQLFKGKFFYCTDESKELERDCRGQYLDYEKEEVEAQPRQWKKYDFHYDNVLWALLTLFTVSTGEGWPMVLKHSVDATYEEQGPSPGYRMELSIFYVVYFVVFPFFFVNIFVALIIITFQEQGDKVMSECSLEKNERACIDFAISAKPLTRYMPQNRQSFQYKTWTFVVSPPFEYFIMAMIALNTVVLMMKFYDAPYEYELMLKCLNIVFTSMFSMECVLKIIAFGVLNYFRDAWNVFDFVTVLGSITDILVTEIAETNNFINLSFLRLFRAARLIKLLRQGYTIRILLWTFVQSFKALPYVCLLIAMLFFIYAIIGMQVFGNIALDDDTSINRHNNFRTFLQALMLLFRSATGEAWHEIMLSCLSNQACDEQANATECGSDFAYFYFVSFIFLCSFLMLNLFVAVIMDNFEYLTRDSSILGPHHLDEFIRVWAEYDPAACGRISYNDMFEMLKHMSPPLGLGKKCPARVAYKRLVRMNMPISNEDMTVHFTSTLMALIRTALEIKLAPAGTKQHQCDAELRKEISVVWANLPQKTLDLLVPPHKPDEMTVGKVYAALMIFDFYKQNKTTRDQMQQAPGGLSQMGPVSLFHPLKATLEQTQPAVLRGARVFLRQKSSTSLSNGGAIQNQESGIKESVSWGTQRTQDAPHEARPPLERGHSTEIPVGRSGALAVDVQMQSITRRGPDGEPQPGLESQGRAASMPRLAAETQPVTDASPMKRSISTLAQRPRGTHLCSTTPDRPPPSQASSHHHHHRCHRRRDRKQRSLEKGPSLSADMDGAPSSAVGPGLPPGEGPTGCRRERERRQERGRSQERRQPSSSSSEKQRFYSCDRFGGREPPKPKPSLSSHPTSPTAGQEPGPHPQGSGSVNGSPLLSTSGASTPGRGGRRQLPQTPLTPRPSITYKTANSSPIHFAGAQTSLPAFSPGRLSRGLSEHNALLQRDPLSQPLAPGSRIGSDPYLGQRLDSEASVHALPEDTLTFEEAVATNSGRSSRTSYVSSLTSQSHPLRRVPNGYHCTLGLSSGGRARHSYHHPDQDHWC
Sequence of N-type calcium channels (Q02641 whole entry partner): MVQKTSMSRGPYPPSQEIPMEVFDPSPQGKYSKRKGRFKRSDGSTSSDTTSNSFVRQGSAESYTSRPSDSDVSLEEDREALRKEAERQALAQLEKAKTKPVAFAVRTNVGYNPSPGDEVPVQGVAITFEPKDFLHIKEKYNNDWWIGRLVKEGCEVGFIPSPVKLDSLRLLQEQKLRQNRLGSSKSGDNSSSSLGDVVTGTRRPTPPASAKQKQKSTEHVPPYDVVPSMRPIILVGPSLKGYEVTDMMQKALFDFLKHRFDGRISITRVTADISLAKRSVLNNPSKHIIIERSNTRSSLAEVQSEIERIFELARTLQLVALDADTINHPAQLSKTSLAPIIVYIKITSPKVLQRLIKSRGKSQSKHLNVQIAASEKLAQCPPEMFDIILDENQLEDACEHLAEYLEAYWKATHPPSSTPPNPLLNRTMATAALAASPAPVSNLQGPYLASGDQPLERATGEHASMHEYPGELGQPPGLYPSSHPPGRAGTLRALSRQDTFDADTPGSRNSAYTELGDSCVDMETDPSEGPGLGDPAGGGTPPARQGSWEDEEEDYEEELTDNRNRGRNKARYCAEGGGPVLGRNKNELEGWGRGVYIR
Sequence of N-type calcium channels (P54289 25-956 partner limits assumed): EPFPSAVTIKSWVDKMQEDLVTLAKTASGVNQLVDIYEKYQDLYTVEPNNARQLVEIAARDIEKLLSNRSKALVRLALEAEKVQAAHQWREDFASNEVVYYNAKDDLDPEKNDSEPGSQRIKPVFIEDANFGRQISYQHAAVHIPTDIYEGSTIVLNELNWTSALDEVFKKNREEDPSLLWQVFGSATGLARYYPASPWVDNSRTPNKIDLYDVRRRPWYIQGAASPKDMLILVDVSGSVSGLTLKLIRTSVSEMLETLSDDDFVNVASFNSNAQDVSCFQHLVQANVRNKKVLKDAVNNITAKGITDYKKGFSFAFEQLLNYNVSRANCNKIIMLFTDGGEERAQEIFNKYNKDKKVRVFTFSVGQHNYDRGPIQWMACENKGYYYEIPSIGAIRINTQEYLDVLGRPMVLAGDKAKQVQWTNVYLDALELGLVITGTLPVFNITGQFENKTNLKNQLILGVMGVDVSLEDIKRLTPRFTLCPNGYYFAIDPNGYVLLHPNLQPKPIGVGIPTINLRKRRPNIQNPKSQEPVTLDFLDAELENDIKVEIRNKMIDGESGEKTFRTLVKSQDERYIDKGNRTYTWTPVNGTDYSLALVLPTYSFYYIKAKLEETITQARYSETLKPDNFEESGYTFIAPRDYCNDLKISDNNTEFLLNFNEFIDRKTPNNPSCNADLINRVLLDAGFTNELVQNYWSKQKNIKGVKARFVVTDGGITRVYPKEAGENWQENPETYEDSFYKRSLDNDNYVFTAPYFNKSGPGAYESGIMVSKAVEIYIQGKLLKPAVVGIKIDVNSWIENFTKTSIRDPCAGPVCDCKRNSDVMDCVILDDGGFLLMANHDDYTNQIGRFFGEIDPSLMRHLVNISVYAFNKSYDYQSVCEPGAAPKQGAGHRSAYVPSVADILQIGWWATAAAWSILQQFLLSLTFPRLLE
Sequence of N-type calcium channels (P54289 957-1103 partner limits assumed): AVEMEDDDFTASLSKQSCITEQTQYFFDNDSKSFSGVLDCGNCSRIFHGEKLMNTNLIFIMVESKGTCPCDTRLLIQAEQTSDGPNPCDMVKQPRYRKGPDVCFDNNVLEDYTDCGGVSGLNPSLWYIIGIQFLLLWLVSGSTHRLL

Compound | IC50 (N-type calcium channels; [1]) [nM] | IC50 (L-type calcium channels) [nM] | inhibition at 100 µM (MAO-B) [%] | IC50 (N-type calcium channels) [nM]
CNC(=O)CN(CCc1ccc(OCc2cccc(F)c2)c(OC)c1)CC(C)C [Example 2, 2-[[2-[4-(3-Fluoro-benzyloxy)-3-methoxy-phenyl]-ethyl]-isobutylamino]-N-methyl-acetamide hydrochloride] | 4800 | 3100 | 53 | 
CNC(=O)CN(CCc1ccc(OCc2cccc(F)c2)c(OC)c1)Cc1ccoc1 [Example 10, 2-[[2-[4-(3-Fluoro-benzyloxy)-3-methoxy-phenyl]-ethyl]-(furan-3-ylmethyl)amino]-N-methyl-acetamide hydrochloride] |  | 1700 |  | 
COc1cc(CCN(CC(=O)N(C)C)Cc2ccccc2)ccc1OCc1cccc(F)c1 [Example 20, 2-[[2-[4-(3-Fluoro-benzyloxy)-3-methoxy-phenyl]-ethyl]-benzylamino]-N,N-dimethyl-acetamide hydrochloride] |  | 4600 | 3 | 1100
CNC(=O)[C@H](CC(C)C)NCCc1ccc(OCc2cccc(F)c2)c(OC)c1 [Example 31, (S)-2-[2-[4-(3-Fluoro-benzyloxy)-3-methoxy-phenyl]-ethylamino]-N-methyl-4-methyl-valeramide] |  | 1000 |  | 
COc1cc(CCNC(C(=O)N(C)C)c2ccccc2)ccc1OCc1cccc(F)c1 (centres unmarked) [Example 32, 2-[2-[4-(3-Fluoro-benzyloxy)-3-methoxy-phenyl]-ethylamino]-2-phenyl-N,N-dimethyl-acetamide hydrochloride] |  |  | 0 | 
COc1cc(CCN(CC(=O)N2CCCC2)Cc2ccccc2)ccc1OCc1cccc(F)c1 [Example 40, 2-[[2-[4-(3-Fluoro-benzyloxy)-3-methoxy-phenyl]-ethyl]-benzylamino]-1-(pyrrolidin-1-yl)-ethanone hydrochloride] | 2200 | 1600 | 11 | 
COc1cc(CCN(CC(=O)NCC(C)(C)N)Cc2ccccc2)ccc1OCc1cccc(F)c1 [Example 42, 2-[[2-[4-(3-Fluoro-benzyloxy)-3-methoxy-phenyl]-ethyl]-benzylamino]-N-(2-amino-2-methyl-propyl)-acetamide hydrochloride] | 2600 | 2400 | 32 | 
COc1cc(CCN(CC(=O)NCCN(C)C)Cc2ccccc2)ccc1OCc1cccc(F)c1 [Example 43, 2-[[2-[4-(3-Fluoro-benzyloxy)-3-methoxy-phenyl]-ethyl]-benzylamino]-N-(2-dimethylamino-ethyl)-acetamide hydrochloride] | 1900 | 1200 | 33 | 
COc1cc(CCN(CC(=O)NCCC2CCCN2C)Cc2ccccc2)ccc1OCc1cccc(F)c1 (centres unmarked) [Example 44, 2-[[2-[4-(3-Fluoro-benzyloxy)-3-methoxy-phenyl]-ethyl]-benzylamino]-N-[2-(1-methyl-pyrrolidin-2-yl)-ethyl]-acetamide hydrochloride] |  |  | 39 | 
CCNC(=O)CN(CCc1ccc(OCc2cccc(F)c2)c(OC)c1)CC1CC1 [Example 47, 2-[[2-[4-(3-Fluoro-benzyloxy)-3-methoxy-phenyl]-ethyl]-(cyclopropylmethyl)amino]-N-ethyl-acetamide hydrochloride] |  | 1800 |  | 
CN(C)CCNC(=O)CN(CCc1cccc(OCc2cccc(F)c2)c1)Cc1ccco1 [Example 71, 2-[[2-[3-(3-Fluoro-benzyloxy)-phenyl]-ethyl]-(furan-2-ylmethyl)amino]-N-(2-dimethylamino-ethyl)-acetamide dihydrochloride] | 1900 | 3400 | 34 | 
CC(C)(N)CNC(=O)CN(CCc1cccc(OCc2cccc(F)c2)c1)Cc1ccco1 [Example 72, 2-[[2-[3-(3-Fluoro-benzyloxy)-phenyl]-ethyl]-(furan-2-ylmethy ° amino]-N-(2-amino-2-methyl-propyl)-acetamidedihydrochloride] | 2600 | 2900 | 31 | 
